{
  "source": "patent US20110230481A2",
  "about": "“DERIVATIVES OF TETRABROMOBENZIMIDAZOLE, A PROCESS FOR THE PREPARATION THEREOF, A PHARMACEUTICAL COMPOSITION COMPRISING THE SAME, A METHOD OF USING THE SAME, A METHOD FOR MODULATING OR REGULATING SERINE/THREONINE KINASES, AND SERINE/THREONINE KINASES MODULATING AGENT” (SELVITA S.A., priority 2009, published 2011)",
  "experiment_in_all_cases": "KINOMEscan Max",
  "type_in_all_cases": "binding",
  "key": {"VRK2": {"molecular_target": "VRK2 (Homo sapiens, UniProt Q86Y07)", "sequence (Q86Y07 whole entry)": "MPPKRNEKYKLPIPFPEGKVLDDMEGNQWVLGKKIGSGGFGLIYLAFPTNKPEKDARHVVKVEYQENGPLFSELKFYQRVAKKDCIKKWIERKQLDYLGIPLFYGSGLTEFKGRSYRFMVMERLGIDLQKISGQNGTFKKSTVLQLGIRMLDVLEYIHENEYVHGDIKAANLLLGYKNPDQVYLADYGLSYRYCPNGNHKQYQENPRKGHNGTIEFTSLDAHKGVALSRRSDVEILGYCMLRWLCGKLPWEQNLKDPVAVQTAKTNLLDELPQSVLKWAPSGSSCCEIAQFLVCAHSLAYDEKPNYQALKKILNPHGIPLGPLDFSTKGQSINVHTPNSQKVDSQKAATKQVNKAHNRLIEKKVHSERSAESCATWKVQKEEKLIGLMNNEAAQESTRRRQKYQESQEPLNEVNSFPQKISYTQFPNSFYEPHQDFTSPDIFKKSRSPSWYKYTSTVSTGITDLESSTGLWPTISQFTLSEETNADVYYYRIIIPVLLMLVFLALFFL", "procedure,_shortened": "(§1)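 Competition binding assay: test compound competes with an immobilized, active-site directed ligand for DNA-tagged kinase. Kinase captured on the ligand is quantified by qPCR of the DNA tag.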"}, "CDK5": {"molecular_target": "T1, CDK5 (Homo sapiens, UniProt Q00535)", "T1 construct": "DNA tag (qPCR label); purchased Ambit Kinomescan (contract screening)", "procedure,_shortened": "as §1"}, "JNK1": {"molecular_target": "T2, JNK1 (Homo sapiens, UniProt P45983)", "T2 construct": "purchased Ambit Kinomescan (contract panel)", "details": "1 μM", "procedure,_shortened": "as §1"}, "MLK1": {"molecular_target": "MLK1 (Homo sapiens, UniProt P80192)", "sequence (P80192 whole entry)": "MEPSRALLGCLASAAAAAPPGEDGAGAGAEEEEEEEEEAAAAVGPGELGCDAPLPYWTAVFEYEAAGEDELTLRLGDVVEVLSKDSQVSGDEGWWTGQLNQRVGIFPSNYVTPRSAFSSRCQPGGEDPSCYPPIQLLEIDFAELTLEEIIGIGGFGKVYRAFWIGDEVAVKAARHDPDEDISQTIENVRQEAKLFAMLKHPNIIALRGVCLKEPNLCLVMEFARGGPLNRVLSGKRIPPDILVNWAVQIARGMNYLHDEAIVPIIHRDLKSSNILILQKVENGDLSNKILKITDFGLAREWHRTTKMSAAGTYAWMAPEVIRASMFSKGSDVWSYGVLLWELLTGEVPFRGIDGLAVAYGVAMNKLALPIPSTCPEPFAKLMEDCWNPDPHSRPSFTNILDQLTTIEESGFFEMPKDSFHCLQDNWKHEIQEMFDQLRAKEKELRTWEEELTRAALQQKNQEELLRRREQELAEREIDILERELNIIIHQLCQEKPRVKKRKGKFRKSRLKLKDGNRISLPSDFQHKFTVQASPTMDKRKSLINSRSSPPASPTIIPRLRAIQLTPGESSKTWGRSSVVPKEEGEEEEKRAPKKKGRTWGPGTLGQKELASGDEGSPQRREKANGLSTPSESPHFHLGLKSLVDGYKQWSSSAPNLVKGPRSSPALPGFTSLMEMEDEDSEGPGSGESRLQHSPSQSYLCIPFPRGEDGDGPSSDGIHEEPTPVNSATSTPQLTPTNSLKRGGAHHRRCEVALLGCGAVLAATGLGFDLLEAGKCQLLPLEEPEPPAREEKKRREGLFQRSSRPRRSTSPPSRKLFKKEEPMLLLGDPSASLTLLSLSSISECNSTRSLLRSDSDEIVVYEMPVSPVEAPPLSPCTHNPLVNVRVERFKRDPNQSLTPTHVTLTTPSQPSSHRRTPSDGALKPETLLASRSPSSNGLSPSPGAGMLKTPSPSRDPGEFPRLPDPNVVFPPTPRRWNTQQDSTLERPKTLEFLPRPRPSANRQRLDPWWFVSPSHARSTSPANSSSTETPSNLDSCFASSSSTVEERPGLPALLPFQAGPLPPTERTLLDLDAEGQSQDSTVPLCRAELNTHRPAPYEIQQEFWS", "procedure,_shortened": "as §1"}, "CSK": {"molecular_target": "T3, CSK (Homo sapiens, UniProt P41240)", "T3 construct": "purchased Ambit (KINOMEscan Max panel service)", "details": "1 μM", "procedure,_shortened": "as §1"}, "PFTAIRE2": {"molecular_target": "PFTAIRE2 (Homo sapiens, UniProt Q96Q40)", "sequence (Q96Q40 whole entry)": "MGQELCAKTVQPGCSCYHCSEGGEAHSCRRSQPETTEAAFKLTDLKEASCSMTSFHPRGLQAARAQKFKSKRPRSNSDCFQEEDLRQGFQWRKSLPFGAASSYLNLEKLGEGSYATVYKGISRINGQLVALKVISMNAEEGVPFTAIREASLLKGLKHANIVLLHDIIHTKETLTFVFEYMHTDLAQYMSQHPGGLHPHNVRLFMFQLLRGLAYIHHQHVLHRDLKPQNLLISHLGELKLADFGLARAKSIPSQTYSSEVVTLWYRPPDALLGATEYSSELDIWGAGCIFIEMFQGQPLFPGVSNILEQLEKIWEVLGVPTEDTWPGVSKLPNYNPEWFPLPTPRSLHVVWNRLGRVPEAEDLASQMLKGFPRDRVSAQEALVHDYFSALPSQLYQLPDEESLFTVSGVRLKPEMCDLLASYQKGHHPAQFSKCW", "procedure,_shortened": "as §1"}, "ABL2": {"molecular_target": "ABL2 (Homo sapiens, UniProt P42684)", "procedure,_shortened": "as §1"}, "MARK4": {"molecular_target": "T4, MARK4 (Homo sapiens, UniProt Q96L34)", "T4 construct": "purchased Ambit (KINOMEscan Max service)", "details": "1 μM", "procedure,_shortened": "as §1"}, "INSR": {"molecular_target": "T5, INSR (Homo sapiens, UniProt P06213)", "T5 construct": "DNA tag (qPCR read-out)", "T5 sequence (P06213 28-1382)": "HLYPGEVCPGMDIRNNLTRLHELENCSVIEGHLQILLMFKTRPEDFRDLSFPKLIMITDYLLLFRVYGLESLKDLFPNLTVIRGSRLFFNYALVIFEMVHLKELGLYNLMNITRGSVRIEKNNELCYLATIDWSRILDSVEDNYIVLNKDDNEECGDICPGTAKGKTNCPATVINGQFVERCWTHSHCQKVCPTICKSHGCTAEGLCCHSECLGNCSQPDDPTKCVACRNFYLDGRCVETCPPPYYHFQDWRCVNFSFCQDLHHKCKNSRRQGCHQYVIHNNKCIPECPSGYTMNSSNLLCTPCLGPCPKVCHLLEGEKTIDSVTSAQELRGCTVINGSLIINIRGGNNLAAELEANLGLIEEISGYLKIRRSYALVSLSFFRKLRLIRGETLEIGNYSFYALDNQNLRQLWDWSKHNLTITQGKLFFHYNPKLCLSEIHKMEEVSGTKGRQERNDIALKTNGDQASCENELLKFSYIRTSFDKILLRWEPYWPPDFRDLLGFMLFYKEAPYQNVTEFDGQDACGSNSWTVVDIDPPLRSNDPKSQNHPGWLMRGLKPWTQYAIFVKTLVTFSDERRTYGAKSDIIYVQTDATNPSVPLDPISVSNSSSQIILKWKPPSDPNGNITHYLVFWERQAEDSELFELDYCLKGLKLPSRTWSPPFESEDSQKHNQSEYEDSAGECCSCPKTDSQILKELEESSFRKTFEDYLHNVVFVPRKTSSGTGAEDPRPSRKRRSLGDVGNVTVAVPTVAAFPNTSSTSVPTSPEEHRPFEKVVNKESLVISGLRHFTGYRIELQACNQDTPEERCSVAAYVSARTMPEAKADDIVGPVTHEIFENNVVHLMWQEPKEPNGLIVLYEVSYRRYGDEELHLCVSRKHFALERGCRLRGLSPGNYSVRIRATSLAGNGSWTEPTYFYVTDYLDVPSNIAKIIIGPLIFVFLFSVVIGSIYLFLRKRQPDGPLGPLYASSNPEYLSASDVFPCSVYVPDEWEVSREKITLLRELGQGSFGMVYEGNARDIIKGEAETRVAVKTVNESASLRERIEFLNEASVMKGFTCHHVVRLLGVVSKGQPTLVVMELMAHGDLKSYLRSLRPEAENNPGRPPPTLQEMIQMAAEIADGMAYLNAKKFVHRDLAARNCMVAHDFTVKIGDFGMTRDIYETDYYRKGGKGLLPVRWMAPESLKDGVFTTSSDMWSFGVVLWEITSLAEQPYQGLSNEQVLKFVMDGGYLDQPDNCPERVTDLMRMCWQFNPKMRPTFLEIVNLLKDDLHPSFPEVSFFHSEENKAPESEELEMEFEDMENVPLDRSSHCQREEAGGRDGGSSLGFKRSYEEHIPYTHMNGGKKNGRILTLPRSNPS", "procedure,_shortened": "as §1"}, "EGFR(G719S)": {"molecular_target": "T6, EGFR(G719S) (Homo sapiens, UniProt P00533, G719S)", "T6 construct": "purchased Ambit (KINOMEscan Max panel service)", "details": "1 μM", "procedure,_shortened": "as §1"}, "LTK": {"molecular_target": "T7, LTK (Homo sapiens, UniProt P29376)", "T7 construct": "purchased Ambit Kinomescan (contract panel)", "procedure,_shortened": "as §1"}, "[1]": {"molecular_target": "ABL1(F317L)-phosphorylated (Homo sapiens, UniProt P00519, F317L)", "procedure,_shortened": "as §1"}, "SRPK3": {"molecular_target": "T8, SRPK3 (Homo sapiens, UniProt Q9UPE1)", "T8 construct": "DNA tag (qPCR read-out)", "procedure,_shortened": "as §1"}, "PIK3CA(H1047Y)": {"molecular_target": "T9, PIK3CA(H1047Y) (Homo sapiens, UniProt P42336, H1047Y)", "T9 construct": "DNA tag (qPCR read-out)", "procedure,_shortened": "as §1"}, "MTOR": {"molecular_target": "MTOR (Homo sapiens, UniProt P42345)", "procedure,_shortened": "as §1"}, "PIK3CA(H1047L)": {"molecular_target": "T10, PIK3CA(H1047L) (Homo sapiens, UniProt P42336, H1047L)", "T10 construct": "DNA tag (qPCR read-out)", "procedure,_shortened": "as §1"}, "IKK-alpha": {"molecular_target": "T11, IKK-alpha (Homo sapiens, UniProt O15111)", "T11 construct": "DNA tag (qPCR read-out); purchased Ambit Kinomescan", "procedure,_shortened": "as §1"}, "ERK5": {"molecular_target": "T12, ERK5 (Homo sapiens, UniProt Q13164)", "T12 construct": "purchased Ambit Kinomescan (contract panel, KINOMEscan Max)", "procedure,_shortened": "as §1"}, "MRCKB": {"molecular_target": "MRCKB (Homo sapiens, UniProt Q9Y5S2)", "procedure,_shortened": "as §1"}, "FLT3(D835H)": {"molecular_target": "T13, FLT3(D835H) (Homo sapiens, UniProt P36888, D835H)", "T13 construct": "purchased Ambit (KINOMEscan Max service)", "procedure,_shortened": "as §1"}, "GAK": {"molecular_target": "T14, GAK (Homo sapiens, UniProt O14976)", "T14 construct": "purchased Ambit (KINOMEscan Max service)", "procedure,_shortened": "as §1"}, "ABL1-phssophorylated": {"molecular_target": "ABL1-phssophorylated (Homo sapiens, UniProt P00519)", "procedure,_shortened": "as §1"}, "GSK3A": {"molecular_target": "T15, GSK3A (Homo sapiens, UniProt P49840)", "T15 construct": "purchased Ambit Kinomescan (contract panel, KINOMEscan Max)", "procedure,_shortened": "as §1"}, "MAP4K5": {"molecular_target": "MAP4K5 (Homo sapiens, UniProt Q9Y4K4)", "procedure,_shortened": "as §1"}, "CDK11": {"molecular_target": "CDK11 (Homo sapiens, UniProt Q9BWU1)", "details": "1 μM", "procedure,_shortened": "as §1"}, "MST1R": {"molecular_target": "MST1R (Homo sapiens, UniProt Q04912)", "procedure,_shortened": "as §1"}, "p38-alpha": {"molecular_target": "p38-alpha (Homo sapiens, UniProt Q16539)", "details": "1 μM", "procedure,_shortened": "as §1"}, "PFPK5(P.falciparum)": {"molecular_target": "T16, PFPK5(P.falciparum) (Plasmodium falciparum, UniProt P61075)", "T16 construct": "DNA tag (qPCR read-out)", "T16 sequence (P61075 whole entry)": "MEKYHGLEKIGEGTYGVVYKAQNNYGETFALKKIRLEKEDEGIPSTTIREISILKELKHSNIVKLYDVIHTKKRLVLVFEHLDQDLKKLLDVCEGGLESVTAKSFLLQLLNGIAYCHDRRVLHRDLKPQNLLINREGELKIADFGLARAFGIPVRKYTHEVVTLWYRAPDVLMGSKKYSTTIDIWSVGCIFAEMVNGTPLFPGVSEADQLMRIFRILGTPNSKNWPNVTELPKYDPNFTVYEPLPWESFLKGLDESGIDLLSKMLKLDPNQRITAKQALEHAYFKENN", "procedure,_shortened": "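Immobilized active-site directed ligand captures DNA-tagged kinase unless test compound competes it off; captured kinase is then quantified by qPCR of the DNA tag.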"}, "ACVR2B": {"molecular_target": "T17, ACVR2B (Homo sapiens, UniProt Q13705)", "T17 construct": "DNA tag (qPCR label); purchased Ambit Kinomescan (contract screening)", "T17 sequence (Q13705 19-512)": "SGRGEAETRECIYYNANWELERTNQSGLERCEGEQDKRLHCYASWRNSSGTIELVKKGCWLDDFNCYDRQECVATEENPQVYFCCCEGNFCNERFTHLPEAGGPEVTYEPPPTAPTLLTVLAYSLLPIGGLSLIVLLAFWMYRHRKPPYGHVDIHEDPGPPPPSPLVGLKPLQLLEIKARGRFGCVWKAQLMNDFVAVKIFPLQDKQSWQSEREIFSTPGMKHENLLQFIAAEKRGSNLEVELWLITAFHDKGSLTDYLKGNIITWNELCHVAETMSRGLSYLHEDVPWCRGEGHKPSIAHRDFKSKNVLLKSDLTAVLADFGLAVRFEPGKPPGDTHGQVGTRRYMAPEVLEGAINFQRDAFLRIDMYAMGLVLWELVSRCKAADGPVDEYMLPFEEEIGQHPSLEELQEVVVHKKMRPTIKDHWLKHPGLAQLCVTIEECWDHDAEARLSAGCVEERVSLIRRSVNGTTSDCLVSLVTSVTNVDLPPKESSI", "details": "1 μM", "procedure,_shortened": "as §1"}, "[2]": {"molecular_target": "T18, JAK1(JH1domain-catalytic) (Homo sapiens, UniProt P23458)", "T18 construct": "JAK1(JH1domain-catalytic); purchased Ambit (KINOMEscan Max service)", "T18 sequence (P23458 875-1153 limits assumed)": "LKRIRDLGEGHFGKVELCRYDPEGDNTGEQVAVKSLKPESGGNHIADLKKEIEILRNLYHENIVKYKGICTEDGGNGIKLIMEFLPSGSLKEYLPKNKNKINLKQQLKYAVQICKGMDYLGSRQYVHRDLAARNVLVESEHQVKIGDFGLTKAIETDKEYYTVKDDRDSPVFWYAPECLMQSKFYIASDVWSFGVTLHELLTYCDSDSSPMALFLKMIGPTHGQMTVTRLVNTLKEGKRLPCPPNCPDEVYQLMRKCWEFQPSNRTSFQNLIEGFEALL", "details": "1 μM", "procedure,_shortened": "as §1"}, "RIOK2": {"molecular_target": "T19, RIOK2 (Homo sapiens, UniProt Q9BVS4)", "T19 construct": "DNA tag (qPCR read-out)", "procedure,_shortened": "as §1"}, "ADCK4": {"molecular_target": "T20, ADCK4 (Homo sapiens, UniProt Q96D53)", "T20 construct": "DNA tag (qPCR read-out)", "T20 sequence (Q96D53 whole entry)": "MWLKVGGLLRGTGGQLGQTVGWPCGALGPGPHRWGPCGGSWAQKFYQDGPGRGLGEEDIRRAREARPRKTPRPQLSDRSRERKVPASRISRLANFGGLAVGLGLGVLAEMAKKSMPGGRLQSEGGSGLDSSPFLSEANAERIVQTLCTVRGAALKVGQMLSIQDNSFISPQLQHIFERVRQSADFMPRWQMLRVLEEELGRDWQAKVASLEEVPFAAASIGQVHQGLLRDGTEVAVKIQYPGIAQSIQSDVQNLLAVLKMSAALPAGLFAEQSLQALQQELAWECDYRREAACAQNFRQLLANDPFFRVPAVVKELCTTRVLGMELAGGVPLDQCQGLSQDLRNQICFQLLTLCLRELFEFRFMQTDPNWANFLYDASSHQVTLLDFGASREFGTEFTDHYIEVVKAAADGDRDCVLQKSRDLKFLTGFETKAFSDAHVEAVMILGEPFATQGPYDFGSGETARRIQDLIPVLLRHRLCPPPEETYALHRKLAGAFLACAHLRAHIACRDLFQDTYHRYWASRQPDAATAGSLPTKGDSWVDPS", "procedure,_shortened": "as §1"}, "LIMK2": {"molecular_target": "T21, LIMK2 (Homo sapiens, UniProt P53671)", "T21 construct": "purchased Ambit Kinomescan (contract screening)", "procedure,_shortened": "as §1"}, "KIT": {"molecular_target": "KIT (Homo sapiens, UniProt P10721)", "procedure,_shortened": "as §1"}},
  "data": [
    {"smiles": "NCCCNc1nc2c(Br)c(Br)c(Br)c(Br)c2[nH]1", "note": "[Compound 11, N-(3-aminopropyl)-4,5,6,7-tetrabromo-1H-benzo[d]imidazol-2-amine]", "values": [
      {"measurement": "remaining binding at 1 µM", "setting": "VRK2", "result": 79, "unit": "%"},
      {"measurement": "remaining binding at 1 µM", "setting": "CDK5", "result": 100, "unit": "%"},
      {"measurement": "% binding", "setting": "JNK1", "result": 100, "unit": "%"},
      {"measurement": "remaining binding at 1 µM", "setting": "MLK1", "result": 100, "unit": "%"},
      {"measurement": "% binding", "setting": "CSK", "result": 100, "unit": "%"},
      {"measurement": "remaining binding at 1 µM", "setting": "PFTAIRE2", "result": 73, "unit": "%"},
      {"measurement": "remaining binding at 1 µM", "setting": "ABL2", "result": 100, "unit": "%"},
      {"measurement": "% binding", "setting": "MARK4", "result": 84, "unit": "%"},
      {"measurement": "remaining binding at 1 µM", "setting": "INSR", "result": 41, "unit": "%"},
      {"measurement": "% binding", "setting": "EGFR(G719S)", "result": 100, "unit": "%"},
      {"measurement": "remaining binding at 1 µM", "setting": "LTK", "result": 100, "unit": "%"},
      {"measurement": "remaining binding at 1 µM", "setting": "[1]", "result": 100, "unit": "%"},
      {"measurement": "remaining binding at 1 µM", "setting": "SRPK3", "result": 100, "unit": "%"},
      {"measurement": "remaining binding at 1 µM", "setting": "PIK3CA(H1047Y)", "result": 100, "unit": "%"},
      {"measurement": "remaining binding at 1 µM", "setting": "MTOR", "result": 100, "unit": "%"},
      {"measurement": "remaining binding at 1 µM", "setting": "PIK3CA(H1047L)", "result": 100, "unit": "%"},
      {"measurement": "remaining binding at 1 µM", "setting": "IKK-alpha", "result": 24, "unit": "%"},
      {"measurement": "remaining binding at 1 µM", "setting": "ERK5", "result": 100, "unit": "%"},
      {"measurement": "remaining binding at 1 µM", "setting": "MRCKB", "result": 100, "unit": "%"},
      {"measurement": "remaining binding at 1 µM", "setting": "FLT3(D835H)", "result": 58, "unit": "%"},
      {"measurement": "remaining binding at 1 µM", "setting": "GAK", "result": 81, "unit": "%"},
      {"measurement": "remaining binding at 1 µM", "setting": "ABL1-phssophorylated", "result": 94, "unit": "%"},
      {"measurement": "remaining binding at 1 µM", "setting": "GSK3A", "result": 100, "unit": "%"},
      {"measurement": "remaining binding at 1 µM", "setting": "MAP4K5", "result": 98, "unit": "%"},
      {"measurement": "% binding", "setting": "CDK11", "result": 74, "unit": "%"},
      {"measurement": "remaining binding at 1 µM", "setting": "MST1R", "result": 100, "unit": "%"},
      {"measurement": "% binding", "setting": "p38-alpha", "result": 100, "unit": "%"},
      {"measurement": "remaining binding at 1 µM", "setting": "PFPK5(P.falciparum)", "result": 100, "unit": "%"},
      {"measurement": "% binding", "setting": "ACVR2B", "result": 100, "unit": "%"},
      {"measurement": "% binding", "setting": "[2]", "result": 86, "unit": "%"},
      {"measurement": "remaining binding at 1 µM", "setting": "RIOK2", "result": 100, "unit": "%"},
      {"measurement": "remaining binding at 1 µM", "setting": "ADCK4", "result": 87, "unit": "%"},
      {"measurement": "remaining binding at 1 µM", "setting": "LIMK2", "result": 96, "unit": "%"},
      {"measurement": "remaining binding at 1 µM", "setting": "KIT", "result": 96, "unit": "%"}
    ]}
  ]
}
